Test results from US11685747B2, “Compounds that inhibit MCL-1 protein” (AMGEN INC., priority 2014, dated 2023).

Tests used:
OPM-2 = experiment: Cell viability assay (OPM-2 10 FBS, CellTiter-Glo); assay type: cell-based, human; details: OPM-2 cells
recombinant human Mcl-1 = target: T1, recombinant human Mcl-1 (Homo sapiens, UniProt Q07820); experiment: Cell free Mcl-1:Bim affinity assay (Mcl-1 HTRF, TR-FRET); assay type: binding; details: inhibition of Mcl-1/Bim interaction
T1 construct: C-terminally 6×His tagged Mcl-1 containing residues 171-327; made in house

[1] = target: T2, Mcl-1/Bak protein-protein interactions (Homo sapiens, UniProt Q07820); experiment: Cell-based split luciferase complementation assay; details: HEK 293 M cells, serum-free, 4 h
T2 construct: expressed in transfected cells; host or cells: HEK 293 M cells, transient transfection
T2 sequence (Q07820 whole entry): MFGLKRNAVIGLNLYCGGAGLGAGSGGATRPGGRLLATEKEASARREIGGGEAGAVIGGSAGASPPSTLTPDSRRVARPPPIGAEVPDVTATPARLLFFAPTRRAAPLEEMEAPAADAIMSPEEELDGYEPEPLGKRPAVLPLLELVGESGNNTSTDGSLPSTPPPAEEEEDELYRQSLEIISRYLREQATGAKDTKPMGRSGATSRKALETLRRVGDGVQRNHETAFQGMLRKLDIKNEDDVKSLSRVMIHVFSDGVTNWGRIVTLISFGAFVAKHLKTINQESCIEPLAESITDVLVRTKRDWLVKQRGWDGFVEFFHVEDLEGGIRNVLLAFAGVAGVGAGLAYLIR

T1 sequence (Q07820 171-327): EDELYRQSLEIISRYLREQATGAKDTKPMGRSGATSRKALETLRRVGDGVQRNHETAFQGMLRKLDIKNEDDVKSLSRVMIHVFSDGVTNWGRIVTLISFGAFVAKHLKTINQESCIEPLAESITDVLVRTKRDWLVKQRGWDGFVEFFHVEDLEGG

SMILES | IC50 (OPM-2; 16 h) [µM] | IC50 (recombinant human Mcl-1) [µM] | IC50 [1] [µM] | IC50 (OPM-2; Homo sapiens, OPM-2, 16 h) [µM]
CC(C)[C@@H]1[C@H](C)C/C=C/[C@H](O)[C@@H]2CC[C@H]2CN2C[C@@]3(CCCc4cc(Cl)ccc43)COc3ccc(cc32)C(=O)NS1(=O)=O (single isomer, unassigned) [Example 52] | 1.11 | 0.000882 | 0.14 | –
C[C@@H]1C/C=C/[C@H](O)[C@@H]2CC[C@H]2CN2C[C@@]3(CCCc4cc(Cl)ccc43)COc3ccc(cc32)C(=O)NS(=O)(=O)[C@H]1CC1CCC1 (single isomer, unassigned) [Example 63] | 0.183 | 0.000423 | 0.0307 | –
CO[C@H]1CCCC[C@@H](C)S(=O)(=O)NC(=O)c2ccc3c(c2)N(C[C@@H]2CC[C@H]21)C[C@@]1(CCCc2cc(Cl)ccc21)CO3 [Example 16, (1S,3′R,6′R,7′S,12′R)-6-Chloro-7′-Methoxy-12′-Methyl-3,4-Dihydro-2H,15′H-Spiro[Naphthalene-1,22′-[20]Oxa[13]Thia[1,14]Diazatetracyclo[14.7.2.0^3,6.0^19,24]Pentacos A[16,18,24]Trien]-15′-One 13′,13′-Dioxide] | – | 0.00208 | 0.107 | 4.33
C[C@H]1C/C=C/[C@H](O)[C@@H]2CC[C@H]2CN2C[C@@]3(CCCc4cc(Cl)ccc43)COc3ccc(cc32)C(=O)NS(=O)(=O)[C@@H]1CC1CC1 (single isomer, unassigned) [Example 61] | 1.32 | 0.00267 | 0.0687 | –
